Experimental data taken from US5972894A, “Peptides having potassium channel opener activity” (Cytran, Inc., priority 1997, dated 1999).
Residues, ends and D or L forms follow the SMILES beside them.

Key:
rats = assay: Arterial blood pressure in anesthetized rats; assay type: in vivo
Description: White random-bred male rats weighing approximately 200 g were employed for this study. Each dose of each respective test or control substance was administered to a group of five rats. GE and VT were employed as test substances and were administered intravenously at doses of 0.01, 0.1, 1.0, and 10.0 mg/kg. Physiological saline (0.2 ml) served as the negative control substance. The ganglionic blocking agent, pentamine, served as the positive control substance and was tested at a dose of 5 mg/kg. Following administration of the test substance, positive control substance, or negative control substance, the arterial blood pressure of each animal was monitored.
Prior to administration of the test or control substance, each animal was anesthetized with Chloralose and then both its carotid artery and jugular vein were catheterized. The carotid catheter was connected to an electronic manometer attached to a computer recorder through an analog-to-digital converter. The mean basal level of the arterial blood pressure was determined as follows: For a period of 30 seconds, the digital signal pertaining to the arterial blood pressure was recorded at 1-second intervals. The mean value of these thirty individual measurements was then determined and recorded.
After determining the mean basal level of the arterial blood pressure, a particular dose of the test or control substance was administered in a volume of 0.2 ml of physiological saline to an animal through the jugular venous catheter. Measurements of the arterial blood pressure were then taken during the next 1.5 hours as follows: (i) during the first 5 minutes, the arterial blood pressure was being monitored continuously and mean values were calculated electronically and recorded at each of the ten different 30-second intervals (i.e., 30th second, 60th second, etc.); (ii) thereafter, mean values of the arterial blood pressure were calculated at the first seconds of 10th minute, 15th minute, 30th minute, 45th minute, 60th minute, 75th minute, and 90th minute after administration of the respective test or control substance.

Isolated Rat Heart = assay: Inotropic function of normal isolated rat heart, Langendorff perfusion
Source text: Rat heart specimens were obtained surgically from white random-bred male rats weighing approximately 250 g. The hearts were established in culture using retrograde heart perfusion according to the Langendorff method performed with a standard oxygenated (95% O2 and 5% CO2) Krebs-Henseleit solution through a glass aorta cannula. The retroperfusion pressure forces the aortic valves shut. In this way, the oxygenated solution passed only through the coronary vasculature of the heart such that both ventricles remain effectively empty. Perfusion conditions: An average constant perfusate flow rate of 15 to 25 ml/min was maintained with a constant perfusate pressure of 80 cm H2 O. Pressure Measurements: A latex balloon catheter connected with a pressure transducer ([…], Sweden) was inserted into the left ventricle of the heart to measure parameters of the inotropic function of the heart. The intraventricle pressure variation curve for the left ventricle was recorded with a polygraph. Experimental Protocol: GE and VT served as the test substances. After a 30-minute adaptation of the heart to the organ culture perfusion conditions, a set of basal (control) measurements was taken, as described in (i) through (v) below. […] See GOODMAN […] THE PHARMACOLOGICAL BASIS OF THERAPEUTICS 160 (Goodman et al., eds., 7th ed. 1985), incorporated herein by reference in its entirety for all purposes. Each dose of each respective test or reference substance was tested on four different rat hearts. The inotropic functions of each of the four rat hearts were evaluated by measuring: (i) the systolic pressure in the left ventricle ([…] diastolic pressure in the left ventricle ([…] evolving pressure (Pev. =[…]); (iv) the maximal rate of increase of left ventricle pressure (+dp/dtmax mm Hg/sec); and (v) the maximal rate of decrease of left ventricle pressure (-dp/dtmax mm Hg/sec). In addition, the heart rate (HR) of each heart was determined from the pressure variation recordings made of the left ventricle pressure.

NCC(=O)N[C@@H](CCC(=O)O)C(=O)O [GE, L-Glycyl-L-Glutamic acid] (H-Gly-Glu-OH)
Arterial Blood Pressure (Basal Level = 100.00) (rats; 0.01 mg/kg i.v., 1 min): 101.02%
Arterial Blood Pressure (Basal Level = 100.00) (rats; 0.01 mg/kg i.v., 2 min): 102.72%
Arterial Blood Pressure (Basal Level = 100.00) (rats; 0.01 mg/kg i.v., 3 min): 103.88%
Arterial Blood Pressure (Basal Level = 100.00) (rats; 0.01 mg/kg i.v., 4 min): 99.77%
Arterial Blood Pressure (Basal Level = 100.00) (rats; 0.01 mg/kg i.v., 5 min): 102.90%
Arterial Blood Pressure (Basal Level = 100.00) (rats; 0.01 mg/kg i.v., 10 min): 96.17%
Arterial Blood Pressure (Basal Level = 100.00) (rats; 0.01 mg/kg i.v., 15 min): 97.01%
Arterial Blood Pressure (Basal Level = 100.00) (rats; 0.01 mg/kg i.v., 30 min): 98.26%
Arterial Blood Pressure (Basal Level = 100.00) (rats; 0.01 mg/kg i.v., 45 min): 99.01%
Arterial Blood Pressure (Basal Level = 100.00) (rats; 0.01 mg/kg i.v., 60 min): 93.29%
Arterial Blood Pressure (Basal Level = 100.00) (rats; 0.01 mg/kg i.v., 75 min): 94.15%
Arterial Blood Pressure (Basal Level = 100.00) (rats; 0.01 mg/kg i.v., 90 min): 102.09%
Arterial Blood Pressure (Basal Level = 100.00) (rats; 0.1 mg/kg i.v., 1 min): 96.00%
Arterial Blood Pressure (Basal Level = 100.00) (rats; 0.1 mg/kg i.v., 2 min): 96.60%
Arterial Blood Pressure (Basal Level = 100.00) (rats; 0.1 mg/kg i.v., 3 min): 97.66%
Arterial Blood Pressure (Basal Level = 100.00) (rats; 0.1 mg/kg i.v., 4 min): 97.32%
Arterial Blood Pressure (Basal Level = 100.00) (rats; 0.1 mg/kg i.v., 5 min): 98.31%
Arterial Blood Pressure (Basal Level = 100.00) (rats; 0.1 mg/kg i.v., 10 min): 96.04%
Arterial Blood Pressure (Basal Level = 100.00) (rats; 0.1 mg/kg i.v., 15 min): 94.98%
Arterial Blood Pressure (Basal Level = 100.00) (rats; 0.1 mg/kg i.v., 30 min): 93.56%
Arterial Blood Pressure (Basal Level = 100.00) (rats; 0.1 mg/kg i.v., 45 min): 80.15%
Arterial Blood Pressure (Basal Level = 100.00) (rats; 0.1 mg/kg i.v., 60 min): 83.03%
Arterial Blood Pressure (Basal Level = 100.00) (rats; 0.1 mg/kg i.v., 75 min): 83.37%
Arterial Blood Pressure (Basal Level = 100.00) (rats; 0.1 mg/kg i.v., 90 min): 84.50%
Arterial Blood Pressure (Basal Level = 100.00) (rats; 1.0 mg/kg i.v., 1 min): 70.32%
Arterial Blood Pressure (Basal Level = 100.00) (rats; 1.0 mg/kg i.v., 2 min): 84.63%
Arterial Blood Pressure (Basal Level = 100.00) (rats; 1.0 mg/kg i.v., 3 min): 90.73%
Arterial Blood Pressure (Basal Level = 100.00) (rats; 1.0 mg/kg i.v., 4 min): 93.72%
Arterial Blood Pressure (Basal Level = 100.00) (rats; 1.0 mg/kg i.v., 5 min): 98.11%
Arterial Blood Pressure (Basal Level = 100.00) (rats; 1.0 mg/kg i.v., 10 min): 94.67%
Arterial Blood Pressure (Basal Level = 100.00) (rats; 1.0 mg/kg i.v., 15 min): 92.70%
Arterial Blood Pressure (Basal Level = 100.00) (rats; 1.0 mg/kg i.v., 30 min): 90.58%
Arterial Blood Pressure (Basal Level = 100.00) (rats; 1.0 mg/kg i.v., 45 min): 88.43%
Arterial Blood Pressure (Basal Level = 100.00) (rats; 1.0 mg/kg i.v., 60 min): 88.85%
Arterial Blood Pressure (Basal Level = 100.00) (rats; 1.0 mg/kg i.v., 75 min): 90.07%
Arterial Blood Pressure (Basal Level = 100.00) (rats; 1.0 mg/kg i.v., 90 min): 89.82%
Arterial Blood Pressure (Basal Level = 100.00) (rats; 10.0 mg/kg i.v., 1 min): 94.68%
Arterial Blood Pressure (Basal Level = 100.00) (rats; 10.0 mg/kg i.v., 2 min): 100.17%
Arterial Blood Pressure (Basal Level = 100.00) (rats; 10.0 mg/kg i.v., 3 min): 101.63%
Arterial Blood Pressure (Basal Level = 100.00) (rats; 10.0 mg/kg i.v., 4 min): 101.22%
Arterial Blood Pressure (Basal Level = 100.00) (rats; 10.0 mg/kg i.v., 5 min): 100.20%
Arterial Blood Pressure (Basal Level = 100.00) (rats; 10.0 mg/kg i.v., 10 min): 95.61%
Arterial Blood Pressure (Basal Level = 100.00) (rats; 10.0 mg/kg i.v., 15 min): 91.27%
Arterial Blood Pressure (Basal Level = 100.00) (rats; 10.0 mg/kg i.v., 30 min): 88.24%
Arterial Blood Pressure (Basal Level = 100.00) (rats; 10.0 mg/kg i.v., 45 min): 89.56%
Arterial Blood Pressure (Basal Level = 100.00) (rats; 10.0 mg/kg i.v., 60 min): 85.99%
Arterial Blood Pressure (Basal Level = 100.00) (rats; 10.0 mg/kg i.v., 75 min): 87.12%
Arterial Blood Pressure (Basal Level = 100.00) (rats; 10.0 mg/kg i.v., 90 min): 78.69%
effect on mean arterial blood pressure (rats; after about 60 to 90 minutes): moderate, but delayed, decrease in the mean arterial blood pressure
effect on inotropic function and heart rate of normal heart (Isolated Rat Heart; 10, 100, 1000 μg): neither GE nor VT had a significant effect
+dp/dtmax % of Basal Level (Isolated Rat Heart; dose 10 mg (mg = microgram)): 102%
+dp/dtmax Subst. Level (Isolated Rat Heart; dose 10 mg (mg = microgram)): 1750 mm Hg/sec
-dp/dtmax % of Basal Level (Isolated Rat Heart; dose 10 mg (mg = microgram)): 94%
-dp/dtmax Subst. Level (Isolated Rat Heart; dose 10 mg (mg = microgram)): 985 mm Hg/sec
HR % of Basal Level (Isolated Rat Heart; dose 10 mg (mg = microgram)): 99%
HR abs, Subst. Level (Isolated Rat Heart; dose 10 mg (mg = microgram)): 202 hb/min
Pdiast % of Basal Level (Isolated Rat Heart; dose 10 mg (mg = microgram)): 95%
Pdiast abs, Subst. Level (Isolated Rat Heart; dose 10 mg (mg = microgram)): 9 mm Hg
Pev % of Basal Level (Isolated Rat Heart; dose 10 mg (mg = microgram)): 102%
Pev Subst. Level (Isolated Rat Heart; dose 10 mg (mg = microgram)): 94 mm Hg
Psyst % of Basal Level (Isolated Rat Heart; dose 10 mg (mg = microgram)): 102%
Psyst abs, Subst. Level (Isolated Rat Heart; dose 10 mg (mg = microgram)): 104 mm Hg
+dp/dtmax % of Basal Level (Isolated Rat Heart; dose 100 mg (mg = microgram)): 100%
+dp/dtmax Subst. Level (Isolated Rat Heart; dose 100 mg (mg = microgram)): 1723 mm Hg/sec
-dp/dtmax % of Basal Level (Isolated Rat Heart; dose 100 mg (mg = microgram)): 99%
-dp/dtmax Subst. Level (Isolated Rat Heart; dose 100 mg (mg = microgram)): 1055 mm Hg/sec
HR % of Basal Level (Isolated Rat Heart; dose 100 mg (mg = microgram)): 100%
HR abs, Subst. Level (Isolated Rat Heart; dose 100 mg (mg = microgram)): 203 hb/min
Pdiast % of Basal Level (Isolated Rat Heart; dose 100 mg (mg = microgram)): 100%
Pdiast abs, Subst. Level (Isolated Rat Heart; dose 100 mg (mg = microgram)): 11 mm Hg
Pev % of Basal Level (Isolated Rat Heart; dose 100 mg (mg = microgram)): 99%
Pev Subst. Level (Isolated Rat Heart; dose 100 mg (mg = microgram)): 88 mm Hg
Psyst % of Basal Level (Isolated Rat Heart; dose 100 mg (mg = microgram)): 99%
Psyst abs, Subst. Level (Isolated Rat Heart; dose 100 mg (mg = microgram)): 99 mm Hg
+dp/dtmax % of Basal Level (Isolated Rat Heart; dose 1000 mg (mg = microgram)): 94%
+dp/dtmax Subst. Level (Isolated Rat Heart; dose 1000 mg (mg = microgram)): 1618 mm Hg/sec
-dp/dtmax % of Basal Level (Isolated Rat Heart; dose 1000 mg (mg = microgram)): 96%
-dp/dtmax Subst. Level (Isolated Rat Heart; dose 1000 mg (mg = microgram)): 980 mm Hg/sec
HR % of Basal Level (Isolated Rat Heart; dose 1000 mg (mg = microgram)): 102%
HR abs, Subst. Level (Isolated Rat Heart; dose 1000 mg (mg = microgram)): 198 hb/min
Pdiast % of Basal Level (Isolated Rat Heart; dose 1000 mg (mg = microgram)): 100%
Pdiast abs, Subst. Level (Isolated Rat Heart; dose 1000 mg (mg = microgram)): 10 mm Hg
Pev % of Basal Level (Isolated Rat Heart; dose 1000 mg (mg = microgram)): 91%
Pev Subst. Level (Isolated Rat Heart; dose 1000 mg (mg = microgram)): 85 mm Hg
Psyst % of Basal Level (Isolated Rat Heart; dose 1000 mg (mg = microgram)): 92%
Psyst abs, Subst. Level (Isolated Rat Heart; dose 1000 mg (mg = microgram)): 94 mm Hg
